Bounds are passed on as bounds.

This test deals with T1, recombinant human MER (Homo sapiens, UniProt Q12866).
T1 construct: purchased Invitrogen
T1 sequence (Q12866 21-999): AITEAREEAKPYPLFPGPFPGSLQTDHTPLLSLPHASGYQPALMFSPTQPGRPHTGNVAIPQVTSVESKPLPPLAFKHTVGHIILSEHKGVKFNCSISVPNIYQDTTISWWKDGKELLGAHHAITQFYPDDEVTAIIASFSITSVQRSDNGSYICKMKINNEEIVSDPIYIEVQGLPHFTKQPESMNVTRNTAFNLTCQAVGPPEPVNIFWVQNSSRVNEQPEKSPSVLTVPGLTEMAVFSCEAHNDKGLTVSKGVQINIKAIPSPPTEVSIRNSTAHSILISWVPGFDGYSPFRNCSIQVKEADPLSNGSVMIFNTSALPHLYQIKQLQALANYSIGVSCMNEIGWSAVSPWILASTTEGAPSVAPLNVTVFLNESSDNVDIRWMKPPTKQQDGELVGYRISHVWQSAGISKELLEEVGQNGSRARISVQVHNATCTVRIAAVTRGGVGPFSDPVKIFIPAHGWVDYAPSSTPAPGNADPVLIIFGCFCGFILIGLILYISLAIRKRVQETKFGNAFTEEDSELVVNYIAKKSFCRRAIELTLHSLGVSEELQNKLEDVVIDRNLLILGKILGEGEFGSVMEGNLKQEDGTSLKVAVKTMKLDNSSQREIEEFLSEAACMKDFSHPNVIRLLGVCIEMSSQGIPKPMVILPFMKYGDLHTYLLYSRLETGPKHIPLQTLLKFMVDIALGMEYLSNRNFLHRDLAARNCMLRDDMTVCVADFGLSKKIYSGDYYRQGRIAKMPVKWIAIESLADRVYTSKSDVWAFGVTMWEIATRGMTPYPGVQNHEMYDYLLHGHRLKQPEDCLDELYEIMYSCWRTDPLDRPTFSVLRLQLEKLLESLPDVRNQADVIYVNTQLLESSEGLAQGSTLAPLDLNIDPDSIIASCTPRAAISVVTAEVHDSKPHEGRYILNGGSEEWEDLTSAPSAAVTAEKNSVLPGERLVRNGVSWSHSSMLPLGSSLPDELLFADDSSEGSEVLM
Briefly: Biochemical potency, HTRF KinEASE-TK kinase assay. Conditions: 1 nM MER, 700 μM ATP. The method in brief: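 Enzyme (AXL 5 nM; TYRO3 or MER 1 nM final) was preincubated with compound for 1 h at RT, then reacted for 2 h at RT with 800 nM biotinylated TK substrate and 700 µM ATP in HEPES pH 7.4, MgCl2, DTT, BSA, 1% DMSO. Percent activity came from the HTRF 665/620 ratio.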
On the technique in general: Time-resolved FRET reads energy transfer from a long-lived donor to a nearby acceptor.
For `C[C@@H]1COC(=O)N1c1cccnc1-c1ccc(-c2n[nH]c3ncc(-c4ccc5c(c4)CC[C@@H](N4C6COCC4C6)CC5)cc23)cc1` [Example 124, (4R)-4-Methyl-3-[2-(4-{5-[(7S)-7-{3-oxa-6-azabicyclo[3.1.1]heptan-6-yl}-6,7,8,9-tetrahydro-5H-benzo[7]annulen-2-yl]-1H-pyrazolo[3,4-b]pyridin-3-yl}phenyl)pyridin-3-yl]-1,3-oxazolidin-2-one], the IC50 (usually the concentration at which inhibition is half-maximal) was below 100 nM. The same measure for `COc1cccnc1-c1ccc(-c2c[nH]c3ncc(-c4ccc5c(c4)CC[C@@H](N4C6COCC4C6)CC5)cc23)cc1` [Example 164, 6-[(7S)-2-{3-[4-(3-Methoxypyridin-2-yl)phenyl]-1H-pyrrolo[2,3-b]pyridin-5-yl}-6,7,8,9-tetrahydro-5H-benzo[7]annulen-7-yl]-3-oxa-6-azabicyclo[3.1.1]heptane]: 100 to 1000 nM; for `Cc1cccnc1-c1ccc(-c2c[nH]c3ncc(-c4ccc5c(c4)CC[C@@H](N4C6COCC4C6)CC5)cc23)nc1` [Example 96, 3-Methyl-6′-{5-[(7S)-7-{3-oxa-6-azabicyclo[3.1.1]heptan-6-yl}-6,7,8,9-tetrahydro-5H-benzo[7]annulen-2-yl]-1H-pyrrolo[2,3-b]pyridin-3-yl}-2,3′-bipyridine]: 100 to 1000 nM; for `CN(C)C(=O)c1cccc(-c2ccc(-c3n[nH]c4ncc(-c5ccc6c(c5)CC[C@@H](N5C7COCC5C7)CC6)cc34)cc2)n1` [Example 94, N,N-Dimethyl-6-(4-{5-[(7S)-7-{3-oxa-6-azabicyclo[3.1.1]heptan-6-yl}-6,7,8,9-tetrahydro-5H-benzo[7]annulen-2-yl]-2H-pyrazolo[3,4-b]pyridin-3-yl}phenyl)pyridine-2-carboxamide]: above 1000 nM.

For `c1cnc(-c2ccc(-c3n[nH]c4ncc(-c5ccc6c(c5)CC[C@@H](N5C7COCC5C7)CC6)cc34)cc2)c(O[C@@H]2CCOC2)c1` [Example 104, 6-[(7S)-2-[3-(4-{3-[(3R)—Oxolan-3-yloxy]pyridin-2-yl}phenyl)-1H-pyrazolo[3,4-b]pyridin-5-yl]-6,7,8,9-tetrahydro-5H-benzo[7]annulen-7-yl]-3-oxa-6-azabicyclo[3.1.1]heptane], the IC50 fell in the range of 100 to 1000 nM.

For `c1ccc(-c2ccc(-c3n[nH]c4ncc(-c5ccc6c(c5)CC[C@@H](N5C7COCC5C7)CC6)cc34)cc2)nc1` [Example 154, 6-[(7S)-2-{3-[4-(Pyridin-2-yl)phenyl]-2H-pyrazolo[3,4-b]pyridin-5-yl}-6,7,8,9-tetrahydro-5H-benzo[7]annulen-7-yl]-3-oxa-6-azabicyclo[3.1.1]heptane], the IC50 fell in the range of 100 to 1000 nM. To `Cc1cccnc1-c1ccc(-c2n[nH]c3ncc(-c4ccc5c(c4)CC[C@@H](N[C@H]4CCCOC4)CC5)cc23)cc1` [Example 129, (3S)—N-[(7S)-2-{3-[4-(3-Methylpyridin-2-yl)phenyl]-1H-pyrazolo[3,4-b]pyridin-5-yl}-6,7,8,9-tetrahydro-5H-benzo[7]annulen-7-yl]oxan-3-amine] belongs below 100 nM; to `CN(C)S(=O)(=O)c1cccnc1-c1ccc(-c2c[nH]c3ncc(-c4ccc5c(c4)CC[C@@H](N4C6COCC4C6)CC5)cc23)cc1` [Example 6, N,N-Dimethyl-2-(4-{5-[(7S)-7-{3-oxa-6-azabicyclo[3.1.1]heptan-6-yl}-6,7,8,9-tetrahydro-5H-benzo[7]annulen-2-yl]-1H-pyrrolo[2,3-b]pyridin-3-yl}phenyl)pyridine-3-sulfonamide], 100 to 1000 nM; to `Cc1cc(F)cnc1-c1ccc(-c2n[nH]c3ncc(-c4ccc5c(c4)CC[C@@H](N4C6COCC4C6)CC5)cc23)cc1` [Example 28, 6-[(7S)-3-[3-[4-(5-Fluoro-3-methylpyridin-2-yl)phenyl]-1H-pyrazolo[3,4-b]pyridin-5-yl]-6,7,8,9-tetrahydro-5H-benzo[7]annulen-7-yl]-3-oxa-6-azabicyclo[3.1.1]heptane], 100 to 1000 nM. To `CCc1cccnc1-c1ccc(-c2c[nH]c3ncc(-c4ccc5c(c4)CC[C@@H](N4C6COCC4C6)CC5)cc23)cc1` [Example 183, 6-[(7S)-2-{3-[4-(3-Ethylpyridin-2-yl)phenyl]-1H-pyrrolo[2,3-b]pyridin-5-yl}-6,7,8,9-tetrahydro-5H-benzo[7]annulen-7-yl]-3-oxa-6-azabicyclo[3.1.1]heptane] belongs 100 to 1000 nM. To `c1cnc(-c2ccc(-c3c[nH]c4ncc(-c5ccc6c(c5)CC[C@@H](N5C7COCC5C7)CC6)cc34)cc2)c(C2CC2)c1` [Example 178, 6-[(7S)-2-{3-[4-(3-Cyclopropylpyridin-2-yl)phenyl]-1H-pyrrolo[2,3-b]pyridin-5-yl}-6,7,8,9-tetrahydro-5H-benzo[7]annulen-7-yl]-3-oxa-6-azabicyclo[3.1.1]heptane] belongs 100 to 1000 nM; to `Cc1cc(-c2ncccc2C)ccc1-c1n[nH]c2ncc(-c3ccc4c(c3)CC[C@@H](N3C5COCC3C5)CC4)cc12` [Example 30, 6-[(7S)-3-[3-[2-Methyl-4-(3-methylpyridin-2-yl)phenyl]-1H-pyrazolo[3,4-b]pyridin-5-yl]-6,7,8,9-tetrahydro-5H-benzo[7]annulen-7-yl]-3-oxa-6-azabicyclo[3.1.1]heptane], above 1000 nM; to `O=C1CCCN1c1cccnc1-c1ccc(-c2c[nH]c3ncc(-c4ccc5c(c4)CC[C@@H](N4C6COCC4C6)CC5)cc23)cc1` [Example 7, 1-[2-(4-{5-[(7S)-7-{3-Oxa-6-azabicyclo[3.1.1]heptan-6-yl}-6,7,8,9-tetrahydro-5H-benzo[7]annulen-2-yl]-1H-pyrrolo[2,3-b]pyridin-3-yl}phenyl)pyridin-3-yl]pyrrolidin-2-one], 100 to 1000 nM. Take `Cc1cncnc1-c1ccc(-c2n[nH]c3ncc(-c4ccc5c(c4)CC[C@@H](N4C6COCC4C6)CC5)cc23)cc1` [Example 174, 6-[(7S)-2-{3-[4-(5-Methylpyrimidin-4-yl)phenyl]-1H-pyrazolo[3,4-b]pyridin-5-yl}-6,7,8,9-tetrahydro-5H-benzo[7]annulen-7-yl]-3-oxa-6-azabicyclo[3.1.1]heptane]: the IC50 is below 100 nM.

Turning to `CN(C)C(=O)c1ccccc1-c1ccc(-c2n[nH]c3ncc(-c4ccc5c(c4)CC[C@@H](N4C6COCC4C6)CC5)cc23)cc1` [Example 12, N,N-Dimethyl-4′-{5-[(7S)-7-{3-oxa-6-azabicyclo[3.1.1]heptan-6-yl}-6,7,8,9-tetrahydro-5H-benzo[7]annulen-2-yl]-2H-pyrazolo[3,4-b]pyridin-3-yl}-[1,1′-biphenyl]-2-carboxamide], the IC50 was 100 to 1000 nM. To `O=c1ccccn1-c1ccc(-c2n[nH]c3ncc(-c4ccc5c(c4)CC[C@@H](N4C6COCC4C6)CC5)cc23)cc1` [Example 31, 1-[4-[5-[(7S)-7-(3-Oxa-6-azabicyclo[3.1.1]heptan-6-yl)-6,7,8,9-tetrahydro-5H-benzo[7]annulen-3-yl]-1H-pyrazolo[3,4-b]pyridin-3-yl]phenyl]pyridin-2-one] belongs above 1000 nM; to `Cc1cc(-c2n[nH]c3ncc(-c4ccc5c(c4)CC[C@@H](N4C6COCC4C6)CC5)cc23)ccc1-c1ccccn1` [Example 159, 6-[(7S)-2-{3-[3-Methyl-4-(pyridin-2-yl)phenyl]-2H-pyrazolo[3,4-b]pyridin-5-yl}-6,7,8,9-tetrahydro-5H-benzo[7]annulen-7-yl]-3-oxa-6-azabicyclo[3.1.1]heptane], 100 to 1000 nM.

`c1cnc(-c2ccc(-c3n[nH]c4ncc(-c5ccc6c(c5)CC[C@@H](N5C7COCC5C7)CC6)cc34)cc2)c(C2CC2)c1` [Example 179, 6-[(7S)-2-{3-[4-(3-Cyclopropylpyridin-2-yl)phenyl]-1H-pyrazolo[3,4-b]pyridin-5-yl}-6,7,8,9-tetrahydro-5H-benzo[7]annulen-7-yl]-3-oxa-6-azabicyclo[3.1.1]heptane]: the IC50 fell in the range of 100 to 1000 nM. The same measure for `CCc1cccnc1-c1ccc(-c2n[nH]c3ncc(-c4ccc5c(c4)CC[C@@H](N4C6COCC4C6)CC5)cc23)cc1` [Example 182, 6-[(7S)-2-{3-[4-(3-Ethylpyridin-2-yl)phenyl]-1H-pyrazolo[3,4-b]pyridin-5-yl}-6,7,8,9-tetrahydro-5H-benzo[7]annulen-7-yl]-3-oxa-6-azabicyclo[3.1.1]heptane]: 100 to 1000 nM; for `Cc1cccnc1-c1ccc(-c2n[nH]c3ncc(-c4ccc5c(c4)CC[C@@](C)(N4CCC[C@H]4C)CC5)cc23)cc1` [Example 163, 3-Methyl-2-(4-{5-[(7S)-7-methyl-7-[(2R)-2-methylpyrrolidin-1-yl]-6,7,8,9-tetrahydro-5H-benzo[7]annulen-2-yl]-2H-pyrazolo[3,4-b]pyridin-3-yl}phenyl)pyridine]: below 100 nM.

Values taken from US12195482B1 (Arcus Biosciences, Inc., priority 2022, dated 2025).
